PubChem BioAssay (NCI)
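Abbreviation: GI50, concentration required for 50% inhibition of growth. TGI: concentration producing complete growth inhibition.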

Experiments:
Test in all cases: growth of human tumour cells (NCI), 384-well format
MDA-MB-435 melanoma = system: MDA-MB-435 melanoma
MOLT-4 leukemia = system: MOLT-4 leukemia
NCI/ADR-RES ovarian = system: NCI/ADR-RES ovarian
SK-MEL-5 melanoma = system: SK-MEL-5 melanoma
SF-268 CNS = system: SF-268 CNS
UO-31 renal = system: UO-31 renal
A549 NSCLC = system: A549 NSCLC
NCI-H522 lung = system: NCI-H522 lung
OVCAR-5 ovarian = system: OVCAR-5 ovarian
TK-10 renal = system: TK-10 renal
T-47D breast = system: T-47D breast
SNB-75 CNS = system: SNB-75 CNS
OVCAR-4 ovarian = system: OVCAR-4 ovarian

Which GI50 (MDA-MB-435 melanoma) does the source give for `Cn1cc(CNCC2CCN(c3ncc(C(=O)NO)cn3)CC2)c2ccccc21` here?
The GI50 was 12.1 nM.

What about the TGI (MDA-MB-435 melanoma) of the same compound?
Its TGI is 29.7 nM.

What about the GI50 (MOLT-4 leukemia) of the same compound?
Its GI50 is under 10 nM.

What about the TGI (MOLT-4 leukemia) of the same compound?
The TGI was under 10 nM.

What about the GI50 (NCI/ADR-RES ovarian) of the same compound?
Its GI50 is 94.9 nM.

And the TGI (NCI/ADR-RES ovarian)?
The TGI was 329 nM.

And the GI50 (SK-MEL-5 melanoma)?
Its GI50 is under 10 nM.

What about the TGI (SK-MEL-5 melanoma) of the same compound?
Its TGI is under 10 nM.

And the GI50 (SF-268 CNS)?
The GI50 was under 10.4 nM.

What about the TGI (SF-268 CNS) of the same compound?
Its TGI is 24.4 nM.

What about the GI50 (UO-31 renal) of the same compound?
Its GI50 is 27.3 nM.

And the TGI (UO-31 renal)?
The TGI was 123 nM.

What about the GI50 (A549 NSCLC) of the same compound?
The GI50 was 11.9 nM.

And the TGI (A549 NSCLC)?
Its TGI is 32.1 nM.

What about the GI50 (NCI-H522 lung) of the same compound?
The GI50 was under 10 nM.

And the TGI (NCI-H522 lung)?
Its TGI is 20.8 nM.

What about the GI50 (OVCAR-5 ovarian) of the same compound?
Its GI50 is under 10 nM.

What about the TGI (OVCAR-5 ovarian) of the same compound?
Its TGI is 23.6 nM.

What about the GI50 (TK-10 renal) of the same compound?
The GI50 was 12.2 nM.

What about the TGI (TK-10 renal) of the same compound?
The TGI was 38.3 nM.

And the GI50 (T-47D breast)?
Its GI50 is under 10 nM.

And the TGI (T-47D breast)?
Its TGI is 15.5 nM.

And the GI50 (SNB-75 CNS)?
Its GI50 is 10.1 nM.

What about the TGI (SNB-75 CNS) of the same compound?
Its TGI is 46.1 nM.

And the GI50 (OVCAR-4 ovarian)?
The GI50 was 18.9 nM.

And the TGI (OVCAR-4 ovarian)?
The TGI was 46.6 nM.
